The record followed here is patent US20090036418A1, “Pharmaceutical composition for treatment of cancer containing pyridylpyridazine or transition metal complex thereof as active ingredient” (priority 2005, published 2009).

For the assay, the system named is XF-498 (human brain cancer). As to the kind of experiment: SRB assay, XF-498 cancer cell line. Conditions: brain cancer cell line of Test Example 1, SRB assay. It counts as cell-based. On the procedure: The pyridylpyridazine compounds prepared in Preparation Examples 1 to 5 and transition metal complexes thereof were evaluated for the anticancer activities thereof. As cancer cell lines used in the test, A549 (human lung cancer), SK-MEL-2 (human skin cancer), HCT-15 (human colon cancer), SK-OV-3 (human […]) and XF-498 (human brain cancer) among 60 kinds of cancer cell lines[Ross, D. T. et al., Systematic variation in gene expression patterns I human cancer cell lines. Nature genetics, 24, 227-235 (2000)], which are used for the search of anticancer activity in the US National Cancer Institute, were obtained from the Bioorganic Research Division, the Korea Research Institute of Chemical Technology. The anticancer activities of the cell lines were evaluated by measuring ED50 values according to the sulforhodamine B (SRB) assay described in the literature[Choi, S. et al., Cytotoxicity of trichlorothecenes to human solid tumor cells in vitro. Arch. Pharm. Res. 19, 6-11 (1996)]. […]
More specifically, the SRB assay was performed in the following manner. […] After completion of the culture, each well was well washed, treated with 150 μl (10 mM) of unbuffer ED Tris solution to dissolve out the SRB dye, and then measured for absorbance at 520 nm using a reader for 96-well plates. […]
(The SRB assay estimates cell density from bound dye.)

In the case of `c1ccc(-c2ccc(-c3ccccn3)nn2)nc1` [Compound of Preparation Example 1, 3,6-bis(2′-pyridyl)pyridazine], the “anticancer activity against the brain cancer cell line (in words)” value is reported as “high anticancer activity”. Regarding “[3,6-bis(6′-methyl-2′-pyridyl)pyridazine]zinc(II) chloride [Compound of Preparation Example 4]”, the “anticancer activity against the brain cancer cell line (in words)” value is “excellent anticancer activity”.
